Results reported in patent US8513303B2, “Antimicrobial agent” (De Montfort University, priority 2007, dated 2013).

Assays:
[1] = tested on: Bacillus subtilis subsp. spizizenii ATCC 6633 spore; experiment: Testing for antimicrobial activity against spores (sporicidal suspension test); format: cell-based
Experimental: Spore suspensions were prepared based on the general principles of European quantitative suspension tests for evaluation of sporicidal activity (BS EN14347:2005: chemical disinfectants and antiseptics, basic sporicidal activity, test method and requirements (phase 1, step 1), London: British Standards Institute). Tryptone soya broth was seeded with spores from a previous batch and incubated at 37° C. to obtain an exponential growth phase culture. 10 mL of this culture was transferred into a Roux flask containing manganese-sulfate sporulation agar so that the inoculum came into contact with all of the surface of the agar. The Roux flasks were incubated at 37° C. for 2 days and for 21 days at 30° C., cultures were recovered, checked for sporulation and stored in water at 5° C. Sporicidal activity was then assessed using the method outlined previously (but with half the volume/weight of hydrogen peroxide, water, organism and catalyst) using 5 to 7.5% w/v hydrogen peroxide (see testing antimicrobial activity section). After neutralisation, a 1 mL sample was added to 12 to 15 mL of melted tryptone soya agar cooled to 45° C. Petri dishes were incubated for a minimum of 4 days and a maximum of 7 days at 37° C. and the log10 reduction in bacterial spore numbers calculated.

[2] = tested on: Pseudomonas aeruginosa ATCC 15442; experiment: Antimicrobial activity of PAN catalyst under buffered neutral pH conditions at room temperature and 35° C.; format: cell-based; conditions: 0.5% w/v H2O2; for log reduction: 35° C., held at neutral pH; for Mean log10 reduction in CFU/ml: room temperature, buffered at neutral pH
Experimental: Experiments were conducted using the method outlined previously (see testing antimicrobial activity section), but hydrogen peroxide and catalyst were prepared in phosphate buffer solution. Experiments were carried out at room temperature and 35° C.

`OO` [Example H2O2, hydrogen peroxide] was tested, and the “Mean log10 reduction in CFU/ml” value ([1]; 5% w/v H2O2, no air, 10 min) was 1.02 (0.03) log10 CFU/ml, the “Mean log10 reduction in CFU/ml” value ([1]; 5% w/v H2O2, no air, 30 min) was 1.26 (0.12) log10 CFU/ml and the “Mean log10 reduction in CFU/ml” value ([1]; 5% w/v H2O2, no air, 60 min) was 1.90 (0.09) log10 CFU/ml. For the same molecule, the “Mean log10 reduction in CFU/ml” value ([1]; 5% w/v H2O2, no air, 120 min) was 3.45 (0.27) log10 CFU/ml, the “Mean log10 reduction in CFU/ml” value ([1]; 5% w/v H2O2, no air, 120 min, listed as hydrogen peroxide) was 3.45 log10 CFU/ml and the “Mean log10 reduction in CFU/ml” value ([1]; 7.5% w/v H2O2, no air, 10 min) was 0.04 (0.11) log10 CFU/ml. For the same molecule, the “Mean log10 reduction in CFU/ml” value ([1]; 7.5% w/v H2O2, no air, 30 min) was 0.19 (0.08) log10 CFU/ml, the “Mean log10 reduction in CFU/ml” value ([1]; 7.5% w/v H2O2, no air, 60 min) was 0.95 (0.01) log10 CFU/ml and the “Mean log10 reduction in CFU/ml” value ([1]; 7.5% w/v H2O2, no air, 120 min) was 4.22 (0.71) log10 CFU/ml. For the same molecule, the “Mean log10 reduction in CFU/ml” value ([1]; 7.5% w/v H2O2, no air, 120 min, listed as hydrogen peroxide) was 4.22 log10 CFU/ml, the log reduction ([2]; air, 20 min) was 3.13 log and the log reduction ([2]; air, 40 min) was 3.41 log. The log reduction ([2]; no air, 50 min) was 3.90 log, the “Mean log10 reduction in CFU/ml” value ([2]; air 2.5 L/min, 10 min) was 1.37 log10 CFU/ml and the “Mean log10 reduction in CFU/ml” value ([2]; air 2.5 L/min, 20 min) was 1.46 log10 CFU/ml. The “Mean log10 reduction in CFU/ml” value ([2]; air 2.5 L/min, 30 min) was 1.71 log10 CFU/ml, the “Mean log10 reduction in CFU/ml” value ([2]; air 2.5 L/min, 40 min) was 1.61 log10 CFU/ml and the “Mean log10 reduction in CFU/ml” value ([2]; air 2.5 L/min, 50 min) was 1.75 log10 CFU/ml. The “Mean log10 reduction in CFU/ml” value ([2]; air 2.5 L/min, 60 min) was 1.90 log10 CFU/ml, the “Mean log10 reduction in CFU/ml” value ([2]; no air, 10 min) was 1.08 log10 CFU/ml and the “Mean log10 reduction in CFU/ml” value ([2]; no air, 20 min) was 1.49 log10 CFU/ml. For the same molecule, the “Mean log10 reduction in CFU/ml” value ([2]; no air, 30 min) was 1.69 log10 CFU/ml, the “Mean log10 reduction in CFU/ml” value ([2]; no air, 40 min) was 1.79 log10 CFU/ml and the “Mean log10 reduction in CFU/ml” value ([2]; no air, 50 min) was 1.92 log10 CFU/ml. The “Mean log10 reduction in CFU/ml” value ([2]; no air, 60 min) was 1.85 log10 CFU/ml.
